One data set relates to isolated helical DNA. Nature of the data set: ΔTm of isolated helical DNA. Type of data set: binding. As for the experimental part:
(§1) The compounds prepared in Examples 1-5 were tested for in vitro DNA and RNA synthesis inhibition activity and in vivo for ability to increase survival time in mice injected with P-388 leukemia cells as described above. The relative solubility in octanol and phosphate buffer, expressed as log10 p, was also determined, as well as the ΔTm of isolated helical DNA synthesized in the in vitro test.

Data set [1] concerns RNA synthesis in L-1210 Cells. In words: inhibition of RNA synthesis in L1210 cells in vitro. Type of data set: cell-based. The conditions noted are these: Mus musculus. The method, then:
(§2) An in vitro test measured inhibition of DNA and RNA synthesis in L-1210 Cells in the method described by Tong, G., et al, J Med Chem (1976) 19:395. ED50 levels (the dose at which 50% inhibition occurs) were computed and ED50 ratios for DNA/RNA determined.
as §1

A short description of the next data set: physchem. Type of data set: physicochemical. The conditions noted are these: octanol-phosphate buffer, pH 7.4. The method, then:
as §1

The subject of data set [2] is DNA synthesis in L-1210 Cells. Nature of the data set: inhibition of DNA synthesis in L1210 cells in vitro. In kind it is cell-based. The conditions noted are these: Mus musculus. The method, then: as §2, §1
The subject of a further data set is P-388 leukemia. In words: survival time of mice injected with P-388 leukemia cells. Type of data set: in vivo. The conditions noted are these: mouse P388, qd 1, 10 mg/kg; T/C = treated survival time/untreated survival time×100. As for the experimental part:
Survival times and % T/C (treated survival time/untreated survival time×100) were determined, as well as dosage levels required.
The relative solubility in octanol and phosphate buffer, expressed as log10 p, was also determined, as well as the ΔTm of isolated helical DNA synthesized in the in vitro test.

The mark [3] stands for this setting: L1210 cells, RNA synthesis, ED50 = dose at which 50% inhibition occurs, read-out: L1210 cells inhib of synth, ED50, RNA.
Where [4] appears, read: read-out: log10 p, octanol-phosphate buffer at pH 7.4.
Where [5] appears, read: L1210 cells, DNA synthesis, ED50 = dose at which 50% inhibition occurs, read-out: L1210 cells inhib of synth, ED50, DNA.
Setting [6] is: L1210, read-out: L1210 cells inhib of synth, ED50, RNA.
The mark [7] stands for this setting: L1210, read-out: L1210 cells inhib of synth, ED50, DNA.

SMILES strings stand for the structures. Where two headings read alike, the source gives them in different places.

Regarding `COc1cccc2c1C(=O)c1c(O)c3c(c(O)c1C2=O)C[C@@](O)(C(C)=O)C[C@@H]3O[C@H]1C[C@H](N)[C@H](O)[C@H](C)O1` [Daunorubicin, daunorubicin, reference compound], the “ΔTm of isolated helical DNA” value in the data set with isolated helical DNA turned out to be 10.5 °C. Moreover, the IC50 turned out to be 330 nM in data set [1] (setting [3]) and 660 nM in data set [2] (setting [5]). Also, the logD in the data set “physchem” (setting [4]) was 0.66.
In the case of `COc1cccc2c1C(=O)c1c(O)c3c(c(O)c1C2=O)C[C@@](O)(C(=O)CO)C[C@@H]3O[C@H]1C[C@H](N)[C@H](O)[C@H](C)O1` [Doxorubicin, doxorubicin, reference compound], in the data set with isolated helical DNA, the “ΔTm of isolated helical DNA” value was 12.8 °C. Besides, the IC50 in data set [1] (setting [3]) was 580 nM; in data set [2] (setting [5]), 1600 nM. Moreover, the logD in “physchem” came out at 0.07. The “Mouse P388 qd 1, % T/C (mg/kg)” value in the data set with P-388 leukemia turned out to be 258 % T/C.
Take `COCC(C#N)N[C@H]1C[C@H](O[C@H]2C[C@](O)(C(C)=O)Cc3c(O)c4c(c(O)c32)C(=O)c2c(OC)cccc2C4=O)O[C@@H](C)[C@H]1O` (stereo partly drawn) [N--(1-cyano-2-methoxy-ethyl)daunorubicin, N-(1-cyano-2-methoxyethyl)Dau]: the IC50 in data set [1] (setting [6]) and in data set [2] (setting [7]) was 510 nM in each case. Also, the logD in “physchem” (setting [4]) is 2.64.
`COCC(C#N)N[C@H]1C[C@H](O[C@H]2C[C@](O)(C(=O)CO)Cc3c(O)c4c(c(O)c32)C(=O)c2c(OC)cccc2C4=O)O[C@@H](C)[C@H]1O` (stereo partly drawn) [N--(1-cyano-2-methoxy-ethyl)doxorubicin, N-(1-cyano-2-methoxyethyl)doxorubicin]: the “ΔTm of isolated helical DNA” value in the data set with isolated helical DNA came to 12.5 °C. In addition, the IC50 was determined as 400 nM in data set [1] (setting [6]) and 800 nM in data set [2] (setting [7]).
Take `COc1cccc2c1C(=O)c1c(O)c3c(c(O)c1C2=O)C[C@@](O)(C(C)=O)C[C@@H]3O[C@H]1C[C@H](NCC#N)[C@H](O)[C@H](C)O1` [N--(cyanomethyl)-daunorubicin, N-(cyanomethyl)daunorubicin]: the “ΔTm of isolated helical DNA” value in the data set with isolated helical DNA stood at 11.7 °C. The IC50 in data set [1] (setting [6]) was found to be 820 nM; in data set [2] (setting [7]), 1750 nM.
Take `COc1cccc2c1C(=O)c1c(O)c3c(c(O)c1C2=O)C[C@@](O)(C(=O)CO)C[C@@H]3O[C@H]1C[C@H](NCC#N)[C@H](O)[C@H](C)O1` [N--(cyanomethyl)-doxorubicin]: the “ΔTm of isolated helical DNA” value in the data set on isolated helical DNA was determined as 13.9 °C. Besides, the IC50 is 290 nM in data set [1] (setting [6]) and 1200 nM in data set [2] (setting [7]).
